From PubChem BioAssay (NCI)
Values joined by “and” are separate entries in the source; they are usually repeats but may differ in a detail not shown here. Equal entries are not always repeated.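 Exposure lasted 48 hours, with cells grown in 96-well plates and compounds tested at five concentrations. GI50: concentration for 50% inhibition of growth. TGI: concentration producing complete growth inhibition.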

What follows are molecules tested on MDA-MB-468 breast (assay: growth of human tumour cells (NCI), 48 h).

First: Cn1c([N+](=O)[O-])cnc1/C=C1\Oc2cc(Cl)ccc2C1=O
Second: C[C@H](Cn1ncnn1)Nc1ncc2cc(Oc3ccc(F)cc3F)c(=O)n(C)c2n1
The GI50 of the first is lower: 3.15 µM for the first, greater than 25 µM for the second.

Going from `O=S(=O)(CCOCc1ccc(-c2ccc3ncnc(Nc4ccc(OCc5cccc(F)c5)c(Cl)c4)c3c2)o1)c1ccccc1` to `COCCOCCOCc1n(Cc2ccc3ccccc3n2)c2ccccc2[n+]1Cc1ccc2ccccc2c1`, the GI50 rises from 0.105 µM to 0.259 µM (2.5-fold).

First: CCC(=C(c1ccc(OCCCN(C)C)cc1)c1ccc(OCCCN(C)C)cc1)c1ccc(Cl)cc1
Second: CCCCCCCCCCN=C(c1ccc(N(C)C)cc1)c1ccc(N(C)C)cc1
The GI50 of the first is 3-fold higher: 1.15 µM for the first, 0.383 µM for the second.

Going from `CC1(C)N=C(N)N=C(N)N1c1ccc(OCC(=O)Nc2ccccc2)c(Cl)c1` to `O=C1C(Cl)=C(Nc2ccccc2)C(=O)c2ccccc21`, the GI50 falls from 3.05 µM to 1.52 µM (2-fold).

Going from `COc1ccc(/C=C2/CCc3cc4ccc(OC)cc4[o+]c32)c(O)c1` to `COc1ccc2cc(-c3ccc(-c4ccc(C(=N)N)s4)s3)ccc2c1`, the GI50 falls from 14 µM to 2.34 µM (6-fold).

First: O=C(/C=C/c1ccccc1)CC(c1ccccc1)N1CCOCC1 (stereo unspecified)
Second: COc1ccccc1/C=C/C(=O)/C=C/c1ccccc1O
The GI50 of the first is 3.9-fold higher: 2.05 µM for the first, 0.53 µM for the second.

Compared with `CC1CCCc2c1nn(C(=O)/C=C(\N)c1ccccc1)c2N` (stereo unspecified), `NC(=O)c1cccc(Nc2nccc(Nc3cccc(F)c3)n2)c1` is 3.1-fold lower in GI50: 11.9 µM for the first, 3.88 µM for the second.

Compared with `Cc1cc(Nc2nc(SCc3ccc(C(=O)Nc4ccc(F)cc4N)cc3)nn3cccc23)n[nH]1`, `CNC(=O)c1cc2c(Oc3ccc(NC(=O)C4(C(=O)Nc5ccc(F)cc5)CC4)cc3)ccnc2cc1OC` is 6.7-fold higher in GI50: 0.432 µM for the first, 2.88 µM for the second.

First: CCC1=C[C@@H]2CN(C1)Cc1c([nH]c3ccccc13)[C@@](C(=O)OC)(c1cc3c(cc1OC)N(C)[C@H]1[C@@](O)(C(=O)OC)[C@H](OC(C)=O)[C@]4(CC)[C@@H]5C[C@@H]5CN5CC[C@]31[C@@H]54)C2
Second: Cc1ncc(C(=O)Nc2ccc(CN3CCN(C)CC3)c(C(F)(F)F)c2)cc1C#Cc1cnc(NC2CC2)c2ncccc12
The GI50 of the first is lower: less than 0.005 µM for the first, 3.92 µM for the second.

Compared with `Cn1cc(-c2csc(-c3cn(C)c4ccccc34)n2)c2cnccc21`, `Cn1c(/C(C#N)=C/c2ccc3ccccc3c2)cc2ccccc21` is 1.6-fold higher in GI50: 0.265 µM for the first, 0.422 µM for the second.

Compared with `COc1cc2c(cc1-c1c(C)noc1C)cc(C)c(=O)n2Cc1ccccn1`, `c1ccc(Cn2cnc3ccc(-c4nc(-c5ccc6c(c5)ncn6C5CCCCC5)cn5ccnc45)cc32)cc1` is 2.2-fold higher in GI50: 0.859 µM for the first, 1.92 µM for the second.

Going from `C=C1CC2(OC1=O)C(=O)N(CCCN1C(=O)C3(CC(=C)C(=O)O3)c3ccccc31)c1ccccc12` (stereo unspecified) to `O=S1(=O)NCCCN1CCNc1nccc(-c2c(-c3cccc(O)c3)nc3sccn23)n1`, the GI50 rises from 1.28 µM to 13.3 µM (10-fold).

Compared with `O=C(O)CCC(NC(=S)S)C(=O)O.[Na+].[Zn+2]` (stereo unspecified), `NC(=O)C1(N2CCCCC2)CCN(CCCC(=O)c2ccc(F)cc2)CC1` is lower in GI50: greater than 50 µM for the first, 0.0204 µM for the second.

First: CCCCCCCCCCCCCCCCCCNC(=O)[C@H]1CSC(c2cccs2)N1 (stereo partly specified)
Second: CCCCCCCCCCCC[n+]1ccccc1 (tested in a mixture with another compound)
The GI50 of the first is 38-fold higher: 9.32 µM for the first, 0.246 µM for the second.

Compared with `COc1ccc(-c2nnc(N3CCN(C(=O)CN4CCN(c5ccc(OC)cc5)CC4)CC3)nc2-c2ccc(OC)cc2)cc1`, `CCN(CC)CCNC(=O)c1cn2ncnc(Oc3ccc(NC(=O)Nc4ccc(Cl)c(C(F)(F)F)c4)c(F)c3)c2c1C` is 2.7-fold lower in GI50: 4.23 µM for the first, 1.57 µM for the second.

In the case of `CC(=O)N[C@H](C(=O)N[C@@H](CCCNC(=N)N)C(=O)N[C@@H](CCCCN)C(=O)N[C@@H](CCCNC(=N)N)C(=O)N[C@]1(C)CCCCCC/C=C\CCC[C@@](C)(C(=O)N[C@@H](CCCNC(=N)N)C(=O)N[C@@H](CCC(=O)O)C(=O)N[C@@H](CC(C)C)C(=O)N[C@H](C(=O)N[C@@H](CCC(=O)O)C(N)=O)C(C)C)NC(=O)[C@H](CCC(N)=O)NC(=O)[C@H](CC(C)C)NC(=O)[C@H](CC(C)C)NC(=O)[C@H](CCCNC(=N)N)NC(=O)[C@H](CCCNC(=N)N)NC(=O)[C@H](CC(C)C)NC1=O)C(C)C`, the GI50 is reported as 3.82 µM.

Compared with `Cn1c([N+](=O)[O-])cnc1/C=C1\Oc2cc(Cl)ccc2C1=O`, `C[C@H](Cn1ncnn1)Nc1ncc2cc(Oc3ccc(F)cc3F)c(=O)n(C)c2n1` is higher in TGI: 15.2 µM for the first, greater than 25 µM for the second.

Compared with `O=S(=O)(CCOCc1ccc(-c2ccc3ncnc(Nc4ccc(OCc5cccc(F)c5)c(Cl)c4)c3c2)o1)c1ccccc1`, `COCCOCCOCc1n(Cc2ccc3ccccc3n2)c2ccccc2[n+]1Cc1ccc2ccccc2c1` is 2.3-fold lower in TGI: 2.33 µM for the first, 0.996 µM for the second.

Compared with `CCC(=C(c1ccc(OCCCN(C)C)cc1)c1ccc(OCCCN(C)C)cc1)c1ccc(Cl)cc1`, `CCCCCCCCCCN=C(c1ccc(N(C)C)cc1)c1ccc(N(C)C)cc1` is 9.8-fold higher in TGI: 3.74 µM for the first, 36.7 µM for the second.

Compared with `CC1(C)N=C(N)N=C(N)N1c1ccc(OCC(=O)Nc2ccccc2)c(Cl)c1`, `O=C1C(Cl)=C(Nc2ccccc2)C(=O)c2ccccc21` is lower in TGI: greater than 100 µM for the first, 3.1 µM for the second.

Going from `COc1ccc(/C=C2/CCc3cc4ccc(OC)cc4[o+]c32)c(O)c1` to `COc1ccc2cc(-c3ccc(-c4ccc(C(=N)N)s4)s3)ccc2c1`, the TGI falls from 34.9 µM to 4.44 µM (7.9-fold).

Compared with `O=C(/C=C/c1ccccc1)CC(c1ccccc1)N1CCOCC1` (stereo unspecified), `COc1ccccc1/C=C/C(=O)/C=C/c1ccccc1O` is 2.7-fold lower in TGI: 5.56 µM for the first, 2.06 µM for the second.

First: CC1CCCc2c1nn(C(=O)/C=C(\N)c1ccccc1)c2N (stereo unspecified)
Second: NC(=O)c1cccc(Nc2nccc(Nc3cccc(F)c3)n2)c1
The TGI of the first is higher: greater than 100 µM for the first, 12.8 µM for the second.

First: Cc1cc(Nc2nc(SCc3ccc(C(=O)Nc4ccc(F)cc4N)cc3)nn3cccc23)n[nH]1
Second: CNC(=O)c1cc2c(Oc3ccc(NC(=O)C4(C(=O)Nc5ccc(F)cc5)CC4)cc3)ccnc2cc1OC
The TGI of the first is 2.7-fold higher: 36 µM for the first, 13.5 µM for the second.

First: CCC1=C[C@@H]2CN(C1)Cc1c([nH]c3ccccc13)[C@@](C(=O)OC)(c1cc3c(cc1OC)N(C)[C@H]1[C@@](O)(C(=O)OC)[C@H](OC(C)=O)[C@]4(CC)[C@@H]5C[C@@H]5CN5CC[C@]31[C@@H]54)C2
Second: Cc1ncc(C(=O)Nc2ccc(CN3CCN(C)CC3)c(C(F)(F)F)c2)cc1C#Cc1cnc(NC2CC2)c2ncccc12
The TGI of the first is 1.6-fold lower: 5.74 µM for the first, 9.32 µM for the second.

Compared with `Cn1cc(-c2csc(-c3cn(C)c4ccccc34)n2)c2cnccc21`, `Cn1c(/C(C#N)=C/c2ccc3ccccc3c2)cc2ccccc21` is higher in TGI: 0.866 µM for the first, greater than 100 µM for the second.

`COc1cc2c(cc1-c1c(C)noc1C)cc(C)c(=O)n2Cc1ccccn1` and `c1ccc(Cn2cnc3ccc(-c4nc(-c5ccc6c(c5)ncn6C5CCCCC5)cn5ccnc45)cc32)cc1` are within 1.5-fold of each other in TGI: 4.8 µM for the first, 4.43 µM for the second.

Going from `C=C1CC2(OC1=O)C(=O)N(CCCN1C(=O)C3(CC(=C)C(=O)O3)c3ccccc31)c1ccccc12` (stereo unspecified) to `O=S1(=O)NCCCN1CCNc1nccc(-c2c(-c3cccc(O)c3)nc3sccn23)n1`, the TGI rises from 3.25 µM to greater than 86.1 µM.

Going from `O=C(O)CCC(NC(=S)S)C(=O)O.[Na+].[Zn+2]` (stereo unspecified) to `NC(=O)C1(N2CCCCC2)CCN(CCCC(=O)c2ccc(F)cc2)CC1`, the TGI falls from greater than 50 µM to 0.0682 µM.

Going from `CCCCCCCCCCCCCCCCCCNC(=O)[C@H]1CSC(c2cccs2)N1` (stereo partly specified) to `CCCCCCCCCCCC[n+]1ccccc1` (tested in a mixture with another compound), the TGI falls from greater than 50 µM to 3.36 µM.

First: COc1ccc(-c2nnc(N3CCN(C(=O)CN4CCN(c5ccc(OC)cc5)CC4)CC3)nc2-c2ccc(OC)cc2)cc1
Second: CCN(CC)CCNC(=O)c1cn2ncnc(Oc3ccc(NC(=O)Nc4ccc(Cl)c(C(F)(F)F)c4)c(F)c3)c2c1C
The TGI of the first is 6.8-fold higher: 21.7 µM for the first, 3.2 µM for the second.

For `CC(=O)N[C@H](C(=O)N[C@@H](CCCNC(=N)N)C(=O)N[C@@H](CCCCN)C(=O)N[C@@H](CCCNC(=N)N)C(=O)N[C@]1(C)CCCCCC/C=C\CCC[C@@](C)(C(=O)N[C@@H](CCCNC(=N)N)C(=O)N[C@@H](CCC(=O)O)C(=O)N[C@@H](CC(C)C)C(=O)N[C@H](C(=O)N[C@@H](CCC(=O)O)C(N)=O)C(C)C)NC(=O)[C@H](CCC(N)=O)NC(=O)[C@H](CC(C)C)NC(=O)[C@H](CC(C)C)NC(=O)[C@H](CCCNC(=N)N)NC(=O)[C@H](CCCNC(=N)N)NC(=O)[C@H](CC(C)C)NC1=O)C(C)C`, the TGI was 32.6 µM.

In the case of `CCN(CC)CCNC(=O)c1c(C)[nH]c(/C=C2\C(=O)Nc3ccc(F)cc32)c1C`, the GI50 is reported as > 10 µM and 3.25 µM and 1.41 µM.
For `Cc1nc(Nc2n[nH]c3c2CN(C(=O)N[C@H](CN(C)C)c2ccccc2)C3(C)C)c2sccc2n1`, the GI50 was 0.247 µM and 0.226 µM.

In the case of `CCN(CC)CCNC(=O)c1c(C)[nH]c(/C=C2\C(=O)Nc3ccc(F)cc32)c1C`, the TGI is reported as > 10 µM and 6.21 µM and 4.31 µM.
In the case of `Cc1nc(Nc2n[nH]c3c2CN(C(=O)N[C@H](CN(C)C)c2ccccc2)C3(C)C)c2sccc2n1`, the TGI is reported as 2.26 µM and 2.47 µM.
